What was measured:
JAK1 = JAK1 (Homo sapiens (Human), UniProt P23458); assay: Biochemical JAK kinase assay (LanthaScreen), JAK1; details: for Ki: read-out: JAK1 pKi (converted)
Procedure: (§1) A panel of four LanthaScreen JAK biochemical assays (JAK1, 2, 3 and Tyk2) were carried in a common kinase reaction buffer (50 mM HEPES, pH 7.5, 0.01% Brij-35, 10 mM MgCl2, and 1 mM EGTA). Recombinant GST-tagged JAK enzymes and a GFP-tagged STAT1 peptide substrate were obtained from Life Technologies.
(§2) Serially diluted compounds were pre-incubated with each of the four JAK enzymes and the substrate in white 384-well microplates (Corning) at ambient temperature for 1 h. ATP was subsequently added to initiate the kinase reactions in 10 μL total volume, with 1% DMSO. The final enzyme concentrations for JAK1, 2, 3 and Tyk2 are 4.2 nM, 0.1 nM, 1 nM, and 0.25 nM respectively; the corresponding Km ATP concentrations used are 25 μM, 3 μM, 1.6 μM, and 10 μM; while the substrate concentration is 200 nM for all four assays. Kinase reactions were allowed to proceed for 1 hour at ambient temperature before a 10 μL preparation of EDTA (10 mM final concentration) and Tb-anti-pSTAT1 (pTyr701) antibody (Life Technologies, 2 nM final concentration) in TR-FRET dilution buffer (Life Technologies) was added. The plates were allowed to incubate at ambient temperature for 1 h before being read on the EnVision reader (Perkin Elmer). Emission ratio signals (520 nm/495 nm) were recorded and utilized to calculate the percent inhibition values based on DMSO and background controls.
(§3) For dose-response analysis, percent inhibition data were plotted vs. compound concentrations, and IC50 values were determined from a 4-parameter robust fit model with the Prism software (GraphPad Software). Results were expressed as pIC50 (negative logarithm of IC50) and subsequently converted to pKi (negative logarithm of dissociation constant, Ki) using the Cheng-Prusoff equation.
(§4) Test compounds having a lower Ki value or higher pKi value in the four JAK assays show greater inhibition of JAK activity.

JAK2 = JAK2 (Homo sapiens (Human), UniProt O60674); assay: Biochemical JAK kinase assay (LanthaScreen), JAK2; details: for Ki: read-out: JAK2 pKi (converted)
JAK2, sequence (O60674 whole entry): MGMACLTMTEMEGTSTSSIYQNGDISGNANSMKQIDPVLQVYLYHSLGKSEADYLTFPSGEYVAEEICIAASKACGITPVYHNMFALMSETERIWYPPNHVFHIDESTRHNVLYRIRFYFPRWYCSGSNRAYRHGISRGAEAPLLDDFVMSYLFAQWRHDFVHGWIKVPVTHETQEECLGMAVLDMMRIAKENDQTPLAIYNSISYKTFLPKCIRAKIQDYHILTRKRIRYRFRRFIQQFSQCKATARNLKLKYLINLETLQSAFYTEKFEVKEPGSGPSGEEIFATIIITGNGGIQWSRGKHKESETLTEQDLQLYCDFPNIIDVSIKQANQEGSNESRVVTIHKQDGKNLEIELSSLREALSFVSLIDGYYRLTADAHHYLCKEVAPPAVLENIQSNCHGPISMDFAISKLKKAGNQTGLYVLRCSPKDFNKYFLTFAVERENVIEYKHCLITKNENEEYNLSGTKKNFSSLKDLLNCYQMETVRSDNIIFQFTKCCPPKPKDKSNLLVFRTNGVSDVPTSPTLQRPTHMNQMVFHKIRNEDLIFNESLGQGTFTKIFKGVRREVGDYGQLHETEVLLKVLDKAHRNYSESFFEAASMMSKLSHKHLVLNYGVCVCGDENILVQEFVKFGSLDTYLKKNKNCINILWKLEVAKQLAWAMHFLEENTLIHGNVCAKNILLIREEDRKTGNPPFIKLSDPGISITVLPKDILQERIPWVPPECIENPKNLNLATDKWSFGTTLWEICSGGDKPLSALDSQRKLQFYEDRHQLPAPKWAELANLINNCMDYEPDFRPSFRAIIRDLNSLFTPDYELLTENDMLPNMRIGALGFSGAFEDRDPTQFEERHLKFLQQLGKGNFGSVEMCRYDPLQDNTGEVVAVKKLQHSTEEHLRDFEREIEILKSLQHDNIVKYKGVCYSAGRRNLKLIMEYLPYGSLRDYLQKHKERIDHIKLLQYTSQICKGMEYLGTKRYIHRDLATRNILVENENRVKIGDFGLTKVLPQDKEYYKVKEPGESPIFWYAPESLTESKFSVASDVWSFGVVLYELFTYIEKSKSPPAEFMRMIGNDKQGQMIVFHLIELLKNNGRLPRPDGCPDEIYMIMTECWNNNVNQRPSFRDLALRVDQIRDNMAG
Procedure: as §1, §2, §3, §4

[1] = test system: IL-13 induced STAT6 phosphorylation in BEAS-2B human lung epithelial cells; assay: Cellular JAKI potency assay (BEAS-2B); format: cell-based; details: BEAS-2B cells; for IC50: Homo sapiens, BEAS-2B, read-out: BEAS2B pIC50 (converted)
Procedure: The JAKI cellular potency assay was carried out by measuring inhibition of interleukin-13 (IL-13, R&D Systems) induced STAT6 phosphorylation in BEAS-2B human lung epithelial cells (ATCC). BEAS-2B cells were grown at 37° C. in a 5% CO2 humidified incubator in 50% DMEM/50% F-12 medium (Life Technologies) supplemented with 10% FBS (Hyclone), 100 U/mL penicillin, 100 μg/mL streptomycin (Life Technologies), and 2 mM GlutaMAX (Life Technologies). On day 1 of the assay, cells were seeded at a 7,500 cells/well density in white poly-D-lysine-coated 384-well plates (Corning) with 25 μL medium and were allowed to adhere overnight in the incubator. On day 2 of the assay, the medium was removed and replaced with 12 μL of assay buffer (Hank's Balanced Salt Solution/HBSS, 25 mM HEPES, and 1 mg/ml bovine serum albumin/BSA) containing dose-responses of test compounds. Compounds were serially diluted in DMSO and then diluted another 1000-fold in media to bring the final DMSO concentration to 0.1%. Cells were incubated with test compounds at 37° C. for 1 h and followed by the addition of 12 μl of pre-warmed IL-13 (80 ng/mL in assay buffer) for stimulation. After incubating at 37° C. for 30 min, the assay buffer (containing compound and IL-13) was removed, and 10 μL of cell lysis buffer (25 mM HEPES, 0.1% SDS, 1% NP-40, 5 mM MgCl2, 1.3 mM EDTA, 1 mM EGTA, supplemented with Complete Ultra mini protease inhibitors and PhosSTOP from Roche Diagnostics). The plates were shaken at ambient temperature for 30 min before the addition of detection reagents. Levels of pSTAT6 were measured using the AlphaLISA SureFire Ultra pSTAT6 (Tyr641) assay kit from PerkinElmer. For dose-response analysis, percent inhibition data were plotted vs. compound concentrations, and IC50 values were determined from a 4-parameter robust fit model with the Graphpad Prism software. Results are expressed as the negative logarithm of the IC50 value, pIC50.
Test compounds having a lower IC50 value or higher pIC50 value in this assay show greater inhibition of IL-13 induced STAT6 phosphorylation.

JAK1, sequence (P23458 whole entry): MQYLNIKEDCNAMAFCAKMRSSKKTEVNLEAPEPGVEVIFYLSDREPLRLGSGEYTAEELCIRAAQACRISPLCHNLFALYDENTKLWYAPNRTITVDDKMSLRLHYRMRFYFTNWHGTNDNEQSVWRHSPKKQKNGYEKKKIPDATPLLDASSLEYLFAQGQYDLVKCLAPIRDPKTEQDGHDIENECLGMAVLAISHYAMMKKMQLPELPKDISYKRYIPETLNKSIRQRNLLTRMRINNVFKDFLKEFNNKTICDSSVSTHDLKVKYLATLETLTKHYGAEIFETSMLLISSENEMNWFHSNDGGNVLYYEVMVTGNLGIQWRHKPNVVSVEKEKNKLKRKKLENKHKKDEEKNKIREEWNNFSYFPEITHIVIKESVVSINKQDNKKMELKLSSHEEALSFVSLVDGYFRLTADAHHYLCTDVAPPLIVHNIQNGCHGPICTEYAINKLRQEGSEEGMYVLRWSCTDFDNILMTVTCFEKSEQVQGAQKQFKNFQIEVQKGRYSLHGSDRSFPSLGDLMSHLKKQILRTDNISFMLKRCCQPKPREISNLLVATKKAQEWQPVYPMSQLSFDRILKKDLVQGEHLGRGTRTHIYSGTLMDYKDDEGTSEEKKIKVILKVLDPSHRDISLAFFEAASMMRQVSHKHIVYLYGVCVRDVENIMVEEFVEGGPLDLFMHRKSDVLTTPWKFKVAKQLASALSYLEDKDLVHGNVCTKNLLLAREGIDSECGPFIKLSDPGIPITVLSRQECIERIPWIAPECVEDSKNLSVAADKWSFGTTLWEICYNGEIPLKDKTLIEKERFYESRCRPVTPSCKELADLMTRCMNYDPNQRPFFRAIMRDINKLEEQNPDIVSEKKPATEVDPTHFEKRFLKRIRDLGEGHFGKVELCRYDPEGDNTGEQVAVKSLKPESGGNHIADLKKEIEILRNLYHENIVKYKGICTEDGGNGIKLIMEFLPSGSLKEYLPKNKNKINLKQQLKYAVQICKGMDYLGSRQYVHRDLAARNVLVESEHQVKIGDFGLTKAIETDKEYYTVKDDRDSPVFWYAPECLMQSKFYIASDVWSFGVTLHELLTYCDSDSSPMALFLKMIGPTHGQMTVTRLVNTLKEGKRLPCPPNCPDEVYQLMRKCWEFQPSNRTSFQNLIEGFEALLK

CCc1cc(O)ccc1-c1ccc2c(-c3nc(C4=CCN(CCNC(C)=O)CC4)c[nH]3)n[nH]c2c1F [Example 107]
JAK1 pKi (JAK1): A (A represents a pKi value ≥10 (Ki≤0.1 nM))
JAK2 pKi (JAK2): A (A represents a pKi value ≥10 (Ki≤0.1 nM))
IC50 [1]: 10 to 31.6 nM

CCc1cc(O)ccc1-c1ccc2c(-c3nc(C4=CCCN(CCNS(C)(=O)=O)C4)c[nH]3)n[nH]c2c1 [Example 108]
Ki (JAK1): 0.1 to 1 nM
JAK2 pKi (JAK2): A (A represents a pKi value ≥10 (Ki≤0.1 nM))
IC50 [1]: 10 to 31.6 nM

CCc1cc(O)ccc1-c1ccc2c(-c3nc(C4=CCCN(CCNC(C)=O)C4)c[nH]3)n[nH]c2c1 [Example 109]
Ki (JAK1): 0.1 to 1 nM
Ki (JAK2): 0.1 to 1 nM
IC50 [1]: 10 to 31.6 nM

CCc1cc(O)ccc1-c1ccc2c(-c3nc(C4=CCCN(CCNC(=O)C(C)C)C4)c[nH]3)n[nH]c2c1 [Example 110]
Ki (JAK1): 0.1 to 1 nM
Ki (JAK2): 0.1 to 1 nM
IC50 [1]: 10 to 31.6 nM

CCc1cc(O)ccc1-c1ccc2c(-c3nc(C4=CCCN(CCNS(C)(=O)=O)C4)c[nH]3)n[nH]c2c1F [Example 111]
Ki (JAK1): 0.1 to 1 nM
Ki (JAK2): 0.1 to 1 nM
IC50 [1]: 10 to 31.6 nM

CCc1cc(O)ccc1-c1ccc2c(-c3nc(C4=CCCN(CCNC(C)=O)C4)c[nH]3)n[nH]c2c1F [Example 112]
Ki (JAK1): 0.1 to 1 nM
Ki (JAK2): 0.1 to 1 nM
IC50 [1]: 10 to 31.6 nM

CCc1cc(O)ccc1-c1ccc2c(-c3nc(C4=CCN(CCNS(C)(=O)=O)C4)c[nH]3)n[nH]c2c1 [Example 113]
Ki (JAK1): 0.1 to 1 nM
JAK2 pKi (JAK2): A (A represents a pKi value ≥10 (Ki≤0.1 nM))
IC50 [1]: 10 to 31.6 nM

CCc1cc(O)ccc1-c1ccc2c(-c3nc(C4=CCN(CCNC(C)=O)C4)c[nH]3)n[nH]c2c1 [Example 114]
JAK1 pKi (JAK1): A (A represents a pKi value ≥10 (Ki≤0.1 nM))
JAK2 pKi (JAK2): A (A represents a pKi value ≥10 (Ki≤0.1 nM))
IC50 [1]: 3.16 to 10 nM

CCc1cc(O)ccc1-c1ccc2c(-c3nc(C4=CCN(CCNS(C)(=O)=O)C4)c[nH]3)n[nH]c2c1F [Example 115]
Ki (JAK1): 0.1 to 1 nM
JAK2 pKi (JAK2): A (A represents a pKi value ≥10 (Ki≤0.1 nM))
IC50 [1]: 10 to 31.6 nM

CCc1cc(O)ccc1-c1ccc2c(-c3nc(C4=CCN(CCNC(C)=O)C4)c[nH]3)n[nH]c2c1F [Example 116]
Ki (JAK1): 0.1 to 1 nM
JAK2 pKi (JAK2): A (A represents a pKi value ≥10 (Ki≤0.1 nM))
IC50 [1]: 10 to 31.6 nM

CCc1cc(O)ccc1-c1ccc2c(-c3nc(C4=CCN(CCCNC(=O)C(C)C)CC4)c[nH]3)n[nH]c2c1 [Example 117]
JAK1 pKi (JAK1): A (A represents a pKi value ≥10 (Ki≤0.1 nM))
JAK2 pKi (JAK2): A (A represents a pKi value ≥10 (Ki≤0.1 nM))
IC50 [1]: 3.16 to 10 nM

CCc1cc(O)ccc1-c1ccc2c(-c3nc(C4=CCN(CCN5CCNC5=O)CC4)c[nH]3)n[nH]c2c1 [Example 118]
JAK1 pKi (JAK1): A (A represents a pKi value ≥10 (Ki≤0.1 nM))
JAK2 pKi (JAK2): A (A represents a pKi value ≥10 (Ki≤0.1 nM))
IC50 [1]: 31.6 to 100 nM

CCc1cc(O)ccc1-c1ccc2c(-c3nc(C4=CCN(CCN5CCCC5=O)CC4)c[nH]3)n[nH]c2c1F [Example 119]
Ki (JAK1): 0.1 to 1 nM
Ki (JAK2): 0.1 to 1 nM
IC50 [1]: 10 to 31.6 nM

CCc1cc(O)ccc1-c1ccc2c(-c3nc(C4=CCN(CCN5CCNC5=O)CC4)c[nH]3)n[nH]c2c1F [Example 120]
Ki (JAK1): 0.1 to 1 nM
Ki (JAK2): 0.1 to 1 nM
IC50 [1]: 10 to 31.6 nM

CCc1cc(O)ccc1-c1ccc2c(-c3nc(C4=CCN(C5CCC(O)CC5)CC4)c[nH]3)n[nH]c2c1F (stereo not drawn) [Example 121]
Ki (JAK1): 0.1 to 1 nM
JAK2 pKi (JAK2): A (A represents a pKi value ≥10 (Ki≤0.1 nM))
IC50 [1]: 10 to 31.6 nM

CCc1cc(O)ccc1-c1ccc2c(-c3nc(C4=CCN(CC5CNC(=O)O5)CC4)c[nH]3)n[nH]c2c1F (stereo not drawn) [Example 123]
Ki (JAK1): 0.1 to 1 nM
Ki (JAK2): 0.1 to 1 nM
IC50 [1]: 31.6 to 100 nM

CCc1cc(O)ccc1-c1ccc2c(-c3nc(C4=CCCN(CCN5CCNC5=O)C4)c[nH]3)n[nH]c2c1 [Example 124]
JAK1 pKi (JAK1): A (A represents a pKi value ≥10 (Ki≤0.1 nM))
JAK2 pKi (JAK2): A (A represents a pKi value ≥10 (Ki≤0.1 nM))
IC50 [1]: 3.16 to 10 nM

CCc1cc(O)ccc1-c1ccc2c(-c3nc(C4=CCCN(CCN5CCNC5=O)C4)c[nH]3)n[nH]c2c1F [Example 125]
Ki (JAK1): 0.1 to 1 nM
Ki (JAK2): 0.1 to 1 nM
IC50 [1]: 31.6 to 100 nM

CCc1cc(O)ccc1-c1ccc2c(-c3nc(C4=CCN(CCN5CCNC5=O)C4)c[nH]3)n[nH]c2c1 [Example 127]
Ki (JAK1): 0.1 to 1 nM
Ki (JAK2): 0.1 to 1 nM
IC50 [1]: 10 to 31.6 nM

CCc1cc(O)ccc1-c1ccc2c(-c3nc(C4=CCN([C@H]5CC[C@H](O)CC5)C4)c[nH]3)n[nH]c2c1 [Example 128]
JAK1 pKi (JAK1): A (A represents a pKi value ≥10 (Ki≤0.1 nM))
JAK2 pKi (JAK2): A (A represents a pKi value ≥10 (Ki≤0.1 nM))
IC50 [1]: 3.16 to 10 nM

CCc1cc(O)ccc1-c1ccc2c(-c3nc(C4=CCN([C@H]5CC[C@@H](O)CC5)C4)c[nH]3)n[nH]c2c1F [Example 129]
JAK1 pKi (JAK1): A (A represents a pKi value ≥10 (Ki≤0.1 nM))
JAK2 pKi (JAK2): A (A represents a pKi value ≥10 (Ki≤0.1 nM))
BEAS2B pIC50 [1]: A (A represents a pIC50 value between 8 (included) and 8.5)

CCc1cc(O)ccc1-c1ccc2c(-c3nc(C4=CCN(Cc5ccccc5)CC4)c[nH]3)n[nH]c2c1 [Example 130]
Ki (JAK1): 0.1 to 1 nM
Ki (JAK2): 1 to 10 nM
IC50 [1]: 31.6 to 100 nM

CCc1cc(O)ccc1-c1ccc2c(-c3nc(C4=CCN(Cc5cnc[nH]5)CC4)c[nH]3)n[nH]c2c1 [Example 131]
JAK1 pKi (JAK1): A (A represents a pKi value ≥10 (Ki≤0.1 nM))
JAK2 pKi (JAK2): A (A represents a pKi value ≥10 (Ki≤0.1 nM))
IC50 [1]: 10 to 31.6 nM

CCc1cc(O)ccc1-c1ccc2c(-c3nc(C4=CCN(Cc5cn[nH]c5)CC4)c[nH]3)n[nH]c2c1 [Example 132]
JAK1 pKi (JAK1): A (A represents a pKi value ≥10 (Ki≤0.1 nM))
JAK2 pKi (JAK2): A (A represents a pKi value ≥10 (Ki≤0.1 nM))
IC50 [1]: 3.16 to 10 nM

CCc1cc(O)ccc1-c1ccc2c(-c3nc(C4=CCN(Cc5cnn[nH]5)CC4)c[nH]3)n[nH]c2c1 [Example 133]
Ki (JAK1): 0.1 to 1 nM
JAK2 pKi (JAK2): A (A represents a pKi value ≥10 (Ki≤0.1 nM))
IC50 [1]: 10 to 31.6 nM

CCc1cc(O)ccc1-c1ccc2c(-c3nc(C4=CCN(Cc5ccccc5)CC4)c[nH]3)n[nH]c2c1F [Example 134]
Ki (JAK1): 1 to 10 nM
Ki (JAK2): 1 to 10 nM
IC50 [1]: 100 to 316 nM

CCc1cc(O)ccc1-c1ccc2c(-c3nc(C4=CCN(CCc5ccccc5)CC4)c[nH]3)n[nH]c2c1F [Example 135]
Ki (JAK1): 1 to 10 nM
Ki (JAK2): 1 to 10 nM
IC50 [1]: 100 to 316 nM

CCc1cc(O)ccc1-c1ccc2c(-c3nc(C4=CCN(Cc5cnc[nH]5)CC4)c[nH]3)n[nH]c2c1F [Example 136]
Ki (JAK1): 0.1 to 1 nM
Ki (JAK2): 0.1 to 1 nM
IC50 [1]: 31.6 to 100 nM

CCc1cc(O)ccc1-c1ccc2c(-c3nc(C4=CCN(Cc5ccn[nH]5)CC4)c[nH]3)n[nH]c2c1F [Example 137]
Ki (JAK1): 0.1 to 1 nM
Ki (JAK2): 0.1 to 1 nM
IC50 [1]: 10 to 31.6 nM

CCc1cc(O)ccc1-c1ccc2c(-c3nc(C4=CCCN(Cc5ccccc5)C4)c[nH]3)n[nH]c2c1 [Example 138]
Ki (JAK1): 0.1 to 1 nM
Ki (JAK2): 0.1 to 1 nM
IC50 [1]: 100 to 316 nM

CCc1cc(O)ccc1-c1ccc2c(-c3nc(C4=CCCN(CCc5ccccc5)C4)c[nH]3)n[nH]c2c1 [Example 139]
Ki (JAK1): 1 to 10 nM
Ki (JAK2): 0.1 to 1 nM
IC50 [1]: 100 to 316 nM

CCc1cc(O)ccc1-c1ccc2c(-c3nc(C4=CCN(Cc5ccccc5)C4)c[nH]3)n[nH]c2c1 [Example 140]
Ki (JAK1): 0.1 to 1 nM
Ki (JAK2): 0.1 to 1 nM
IC50 [1]: 31.6 to 100 nM
